Source: patent publication US20110124745A1, “Switchable Anionic Surfactants and Methods of Making and Using Same” (priority 2009, published 2011)
“And” between values parts separate entries of the source, which are not always exact repeats. Identical values can stand only once.

Key:
Type in all cases: physicochemical
[1] = Switching efficiency by 1H NMR, method A ([(CH3)4N]I internal standard); settings: relative to (CH3)4NI set to 100
Description: In both methods, to quantify the concentration of surfactant in solution, its ^1H NMR integration was compared to one of two internal standards of known concentration. In addition to the difference in which internal standard was used, the two methods can also be distinguished from each other on the basis of the timing of the addition of the internal standard. In method A, the standard remains in the solution during the process of switching. In method B, the switching is executed first and the DMF solution of known strength and quantity is added in to the solution.
In both methods, the surfactant was turned OFF with CO2 by positioning the needle that supplied the CO2 to the surfactant solution above the solution in such a way that the slow flow of CO2 was allowed to interact with the surfactant solution at the surface. The switching from ON to OFF required 5 min or less. Increasing the surface area, for example, by slightly tilting the vial, expedited the switching from ON to OFF. To turn the surfactant ON, the solution was stirred at 70° C. for 40 min as described above. After each ON cycle, 0.5 mL of D2O was added to the solution to compensate for the loss in the volume caused by evaporation.
The surfactant solution was prepared by combining 0.046 g of octyl 4-hydroxy-3-nitrobenzoate (1N) and 0.136 g of Na2CO3 in 16.0 mL of D2O. To this solution, 11.5 mg of [(CH3)4N]I was added. The resultant solution was homogenized by sonication for 2 min. […] Stirring bars were introduced in vials 3 to 11. […] The surfactant solutions were turned OFF and ON by the procedure described in Example 3.
As the standard, [(CH3)4N]I was added early into the surfactant solution. All the solutions were filtered and the ^1H NMR spectra of all these solutions were recorded. In all cases, the integration of [(CH3)4N]I was set to 100 and compared with the integration of aromatic proton at δ ˜7.3. […] Thus the concentration of the surfactant in these solutions was substantially zero. […] Thus the experimental results established that the surfactant turns ON and OFF with substantially 100% efficiency.

[2] = Solubility observations (aqueous solution, DMSO)
Description: The following study confirmed that compounds (1A) and (1N) reversibly convert from the neutral form (1N) to the anionic form (1A) and back to the neutral form over and over again with substantially no loss of product. The conversion was verified visually since the neutral form was not soluble in aqueous solution and appeared as a white precipitate in colourless liquid while the anionic form was fully soluble in aqueous solution and appeared as a clear yellow liquid (see FIG. 2). In addition to visual examination, ^1H NMR studies that are described below confirmed the presence of the hydroxyl proton in the spectra of the neutral form.
Since n-octyl 4-hydroxy-3-nitrobenzoate (1N) and the […] salt of (1A) are soluble in DMSO and have some characteristic signals in the ^1H NMR spectrum, […] was used as a solvent to monitor the non-aqueous switchability by NMR spectroscopy.

[3] = pKa of the protonated (neutral) form
[4] = Switching from (1N) to (1A) using exposure to air; settings: D2O with Na2CO3, uncapped, stirred at room temperature, 90 min
Experimental: A solution of anionic surfactant (1A) was prepared by combining octyl 4-hydroxy-3-nitrobenzoate (1N) (0.023 g) and Na2CO3 (0.068 g) in 8.0 mL of D2O. The resultant solution was homogenized by sonication for 2 min. Aliquots (1.00 mL) of this solution were transferred by Hamilton syringe with a least count of 0.005 mL, into three different vials, which were labeled as vials A, B and C. Visual observations were made of vials A, B and C after 0, 30 and 90 min of stirring at room temperature under separate conditions as described below and are presented in FIG. 3A, 3B and 3C, respectively. […] The solution in vial A remained in the ON form (1A) throughout the experiment and it appeared as a yellow homogeneous solution that was free of any solids. A magnetic stir bar was introduced in vials B and C. The surfactant solutions in vials B and C were turned OFF by allowing a stream of CO2 provided by a needle to blow, CO2 at the surface of the solutions (the needle was not allowed to dip or touch the surface of the solution). Vial C was then capped and its cap was supplemented by […]™ to inhibit CO2 leakage. Thus at the beginning of this experiment, which is pictured in FIG. 3A, vial A held a solution in the ON form, and vials B and C held a solution in the OFF form. Vial B was then uncapped and stirred under passive exposure to air. Vial C was stirred under a passive CO2 headgas. […]

Compound | Proton integration at ~7.3 δ ([1]; D2O with Na2CO3, vial 1, control, never switched (ON)) | Proton integration at ~7.3 δ ([1]; D2O with Na2CO3, vials 3, 5, 7, 9, 11: ON/OFF cycles of Table 1 ending ON (70° C., 40 min)) | solubility in aqueous solution (visual) [2] | pKa [3] | Proton integration at ~7.3 δ ([1]; filtered D2O solution, vials 2, 4, 6, 8, 10: cycles of Table 1 ending OFF (CO2)) | solubility in DMSO [2] | conversion of OFF form to ON form by passive exposure to air [4]
CCCCCCCCOC(=O)c1ccc(O)c([N+](=O)[O-])c1 [compound (1A), 2-nitro-4-(octyloxycarbonyl)phenolate] | 24 | 23 and 24 and 22 and 20 | fully soluble |  |  |  | 
CCCCCCCCOC(=O)c1ccc(O)c([N+](=O)[O-])c1 [compound (1N), octyl 4-hydroxy-3-nitrobenzoate] |  |  |  | ~5.5 | 0 | soluble | passive exposure to air is sufficient
